In patent US5075289A, “9-R-azacyclic erythromycin antibiotics” (priority 1988, dated 1991) one finds MIC data, which are given here for three molecules.

Structures are written as SMILES. ≈ marks a conversion by molar mass, not a printed value. Like-named read-outs stand apart in the source and are kept apart here. A value given as a limit tells only on which side of the number the result lay.

What all share (assay type): cell-based
Experiment [1] deals with Staphylococcus aureus 45 RAR 2. Put plainly: microbe, parasite or virus in culture. As to conditions: 45RAR2. The protocol:
(§1) The antimicrobial spectra of a number of compounds of the invention were tested by the following method:
(§2) Twelve petri dishes containing successive aqueous dilutions of the test compound mixed with 10 ml of sterilized Brain Heart Infusion agar (Difco 0418-01-5) are prepared. Each plate is inoculated with 1:100 (or 1:10 for slow growing strains, primarily Micrococcus and Streptococcus) dilutions of up to 32 different microorganisms, using a Steers replicator block The inoculated plates are incubated at 35°-37° C. for 20-24 hours. In addition, a control plate, using BHI agar containing no test compound, is prepared and incubated at the beginning and end of each test.
(§3) An additional plate containing a compound having known susceptibility patterns for the organisms being tested and belonging to the same antibiotic class as the test compound is also prepared and incubated as a further control, as well as to provide test-to-test comparability. Erythromycin A was used for this purpose.
(§4) After incubation, each disk is read. The MIC is defined as the lowest concentration of drug yielding no growth, a slight haze, or sparsely isolated colonies on the inoculum spot as compared to the growth control.

The next experiment has as its system Escherichia coli H560. Nature of the experiment: In vitro antibacterial activity, agar dilution MIC. The protocol:
as §1, §2, §3, §4
A general note: Agar dilution tests growth on a series of plates holding different concentrations.

A further experiment has as its system Escherichia coli SS. Nature of the experiment: In vitro antibacterial activity, agar dilution MIC. Conditions: read-out: MIC. The protocol:
as §1, §2, §3, §4

Another experiment has as its system Escherichia coli Juhl. Put plainly: In vitro antibacterial activity, agar dilution MIC. The protocol: as §1, §2, §3, §4
Experiment [2] deals with Micrococcus luteus ATCC 4698. Nature of the experiment: In vitro antibacterial activity, agar dilution MIC. How it is done:
as §1, §2, §3, §4

Another experiment has as its system Staphylococcus aureus 45. Nature of the experiment: In vitro antibacterial activity, agar dilution MIC. How it is done: as §1, §2, §3, §4
The subject of experiment [3] is Staphylococcus epidermidis 3519. Nature of the experiment: In vitro antibacterial activity, agar dilution MIC. Conditions: S. epidermidis 3519, Brain Heart Infusion agar, 20-24 hours, read-out: MIC. The protocol:
as §1, §2, §3, §4

The subject of experiment [4] is Streptococcus pyogenes 2548 INDUC. Nature of the experiment: In vitro antibacterial activity, agar dilution MIC. As to conditions: S. pyogenes 2548 INDUC, Brain Heart Infusion agar, 20-24 hours, read-out: MIC. The protocol: as §1, §2, §3, §4
For experiment [5], the system named is Staphylococcus aureus CMX 553. Put plainly: In vitro antibacterial activity, agar dilution MIC. Conditions: CMX553, S. aureus CMX 553, Brain Heart Infusion agar, 20-24 hours, read-out: MIC. The protocol:
as §1, §2, §3, §4

Experiment [6] concerns Staphylococcus aureus ATCC 6538P. Put plainly: In vitro antibacterial activity, agar dilution MIC. Conditions: ATCC6538P. How it is done: as §1, §2, §3, §4
The next experiment relates to Escherichia coli DC-2. Nature of the experiment: In vitro antibacterial activity, agar dilution MIC. The protocol:
as §1, §2, §3, §4

The test system of experiment [7] is Streptococcus agalactiae CMX 508. Nature of the experiment: In vitro antibacterial activity, agar dilution MIC. The protocol:
as §1, §2, §3, §4

For experiment [8], the system named is Staphylococcus aureus 642A. Put plainly: In vitro antibacterial activity, agar dilution MIC. As to conditions: S. aureus 642A, Brain Heart Infusion agar, 20-24 hours, read-out: MIC. The protocol:
as §1, §2, §3, §4

Experiment [9] has as its system Streptococcus bovis A5169. Nature of the experiment: In vitro antibacterial activity, agar dilution MIC. Conditions: read-out: MIC. How it is done:
as §1, §2, §3, §4

The test system of experiment [10] is Micrococcus luteus ATCC 9341. Put plainly: In vitro antibacterial activity, agar dilution MIC. How it is done:
as §1, §2, §3, §4

Experiment [11] relates to Staphylococcus aureus A5177. Nature of the experiment: In vitro antibacterial activity, agar dilution MIC. As to conditions: S. aureus A5177, Brain Heart Infusion agar, 20-24 hours, read-out: MIC. How it is done:
as §1, §2, §3, §4

The subject of experiment [12] is Enterococcus faecium ATCC 8043. Nature of the experiment: In vitro antibacterial activity, agar dilution MIC. The protocol: as §1, §2, §3, §4
The subject of experiment [13] is Streptococcus pyogenes EES61. Put plainly: In vitro antibacterial activity, agar dilution MIC. As to conditions: S. pyogenes EES61, Brain Heart Infusion agar, 20-24 hours, read-out: MIC. The protocol:
as §1, §2, §3, §4

The test system of experiment [14] is Streptococcus pyogenes 930 CONST. Nature of the experiment: In vitro antibacterial activity, agar dilution MIC. Conditions: 930CONST. How it is done: as §1, §2, §3, §4
The subject of experiment [15] is Staphylococcus aureus NCTC 10649. Nature of the experiment: In vitro antibacterial activity, agar dilution MIC. As to conditions: NCTC10649, S. aureus NCTC 10649, Brain Heart Infusion agar, 20-24 hours, read-out: MIC. How it is done:
as §1, §2, §3, §4

The mark [16] stands for this setting: E. coli H560, Brain Heart Infusion agar, 20-24 hours, read-out: MIC.
The mark [17] stands for this setting: E. coli SS, Brain Heart Infusion agar, 20-24 hours.
[18] abbreviates: E. coli Juhl, Brain Heart Infusion agar, 20-24 hours, read-out: MIC.
Where [19] appears, read: ATCC4698, M. luteus ATCC 4698, Brain Heart Infusion agar, 20-24 hours, read-out: MIC.
[20] abbreviates: S. aureus 45, Brain Heart Infusion agar, 20-24 hours, read-out: MIC.
Setting [21] is: S. aureus ATCC 6538P, Brain Heart Infusion agar, 35-37° C., 20-24 hours, read-out: MIC.
[22] abbreviates: DC2, E. coli DC-2, Brain Heart Infusion agar, 20-24 hours, read-out: MIC.
[23] abbreviates: CMX508, S. agalactiae CMX 508, Brain Heart Infusion agar, 20-24 hours, read-out: MIC.
Where [24] appears, read: S. bovis A5169, Brain Heart Infusion agar, 20-24 hours.
Where [25] appears, read: ATCC9341, M. luteus ATCC 9341, Brain Heart Infusion agar, 20-24 hours, read-out: MIC.
The mark [26] stands for this setting: ATCC8043, E. faecium ATCC 8043, Brain Heart Infusion agar, 20-24 hours, read-out: MIC.

In the case of `CC[C@H]1OC(=O)[C@H](C)[C@@H](O[C@H]2C[C@@](C)(OC)[C@@H](O)[C@H](C)O2)[C@H](C)[C@@H](O[C@@H]2O[C@H](C)C[C@H](N(C)C)[C@H]2O)[C@](C)(O)C[C@@H](C)[C@@H](N2CCS(=O)(=O)CC2)[C@H](C)[C@@H](O)[C@]1(C)O` [Example 22], the MIC in experiment [1] was 6.2 µg/mL (≈ 7.27 µM); with Escherichia coli H560 (setting [16]), greater than 100 µg/mL; in the experiment with Escherichia coli SS (setting [17]) it was 1.56 µg/mL (≈ 1.83 µM); in the experiment with Escherichia coli Juhl (setting [18]), greater than 100 µg/mL; in experiment [2] (setting [19]), 3.1 µg/mL (≈ 3.63 µM); in the experiment on Staphylococcus aureus 45 (setting [20]) it was 6.2 µg/mL (≈ 7.27 µM). The MIC in [3] is 6.2 µg/mL (≈ 7.27 µM); in experiment [4], 100 µg/mL (≈ 117 µM); in [5], 3.1 µg/mL (≈ 3.63 µM); in experiment [6] (setting [21]), 3.1 µg/mL (≈ 3.63 µM); in the experiment with Escherichia coli DC-2 (setting [22]) it was greater than 100 µg/mL; in [7] (setting [23]), 0.39 µg/mL (≈ 0.457 µM). The MIC was 6.2 µg/mL (≈ 7.27 µM) in experiment [8]; 0.39 µg/mL (≈ 0.457 µM) in [9] (setting [24]); 0.39 µg/mL (≈ 0.457 µM) in experiment [10] (setting [25]); greater than 100 µg/mL in experiment [11]; 1.56 µg/mL (≈ 1.83 µM) in [12] (setting [26]); 0.39 µg/mL (≈ 0.457 µM) in experiment [13]. Moreover, the MIC in experiment [14] is greater than 100 µg/mL; in [15] it was 3.1 µg/mL (≈ 3.63 µM).
`CC[C@H]1OC(=O)[C@H](C)[C@@H](O[C@H]2C[C@@](C)(OC)[C@@H](O)[C@H](C)O2)[C@H](C)[C@@H](O[C@@H]2O[C@H](C)C[C@H](N(C)C)[C@H]2O)[C@](C)(O)C[C@@H](C)[C@@H](N2CCCC(C)(C)C2)[C@H](C)[C@@H](O)[C@]1(C)O` [Example 1]: the MIC in [1] came out at 0.78 µg/mL (≈ 0.938 µM); in the experiment with Escherichia coli H560 (H560) it was 6.2 µg/mL (≈ 7.46 µM); with Escherichia coli SS it was 0.2 µg/mL (≈ 0.241 µM); against Escherichia coli Juhl it was 25 µg/mL (≈ 30.1 µM); in experiment [2] (ATCC4698), 0.1 µg/mL (≈ 0.12 µM); against Staphylococcus aureus 45 (45), 0.39 µg/mL (≈ 0.469 µM). Besides, the MIC in [3] stood at 0.78 µg/mL (≈ 0.938 µM); in experiment [5] it was 0.78 µg/mL (≈ 0.938 µM); in experiment [6], 0.39 µg/mL (≈ 0.469 µM); in the experiment on Escherichia coli DC-2 (DC2) it was 50 µg/mL (≈ 60.2 µM); in experiment [7] (setting [23]) it was 0.1 µg/mL (≈ 0.12 µM); in experiment [8] it was 0.78 µg/mL (≈ 0.938 µM). Moreover, the MIC in experiment [9] is 0.02 µg/mL (≈ 0.0241 µM); in experiment [10] (setting [25]) it was 0.05 µg/mL (≈ 0.0602 µM); in [11], 6.2 µg/mL (≈ 7.46 µM); in experiment [12] (ATCC8043) it was 0.1 µg/mL (≈ 0.12 µM); in experiment [13] it was 0.1 µg/mL (≈ 0.12 µM); in experiment [14], greater than 100 µg/mL. The MIC in [15] came out at 0.78 µg/mL (≈ 0.938 µM).
With `CC[C@H]1OC(=O)[C@H](C)[C@@H](O[C@H]2C[C@@](C)(OC)[C@@H](O)[C@H](C)O2)[C@H](C)[C@@H](O[C@@H]2O[C@H](C)C[C@H](N(C)C)[C@H]2O)[C@](C)(O)C[C@@H](C)[C@@H](N2CCN(C(=O)c3ccccc3)CC2)[C@H](C)[C@@H](O)[C@]1(C)O` [Example 17], the MIC in experiment [1] is 3.1 µg/mL (≈ 3.41 µM); in the experiment with Escherichia coli H560 (setting [16]), greater than 100 µg/mL; with Escherichia coli SS (setting [17]), 3.1 µg/mL (≈ 3.41 µM); in the experiment with Escherichia coli Juhl (setting [18]) it was greater than 100 µg/mL; in [2] (setting [19]), 0.78 µg/mL (≈ 0.859 µM); in the experiment on Staphylococcus aureus 45 (setting [20]), 0.78 µg/mL (≈ 0.859 µM). Further, the MIC is 1.56 µg/mL (≈ 1.72 µM) in experiment [3]; 25 µg/mL (≈ 27.5 µM) in experiment [4]; 1.56 µg/mL (≈ 1.72 µM) in experiment [5]; 1.56 µg/mL (≈ 1.72 µM) in [6] (setting [21]); greater than 100 µg/mL in the experiment with Escherichia coli DC-2 (setting [22]); 0.2 µg/mL (≈ 0.22 µM) in experiment [7] (CMX508, read-out: MIC). The MIC worked out at 1.56 µg/mL (≈ 1.72 µM) in [8]; 0.39 µg/mL (≈ 0.429 µM) in [9] (setting [24]); 0.2 µg/mL (≈ 0.22 µM) in [10] (ATCC9341, read-out: MIC); 12.5 µg/mL (≈ 13.8 µM) in experiment [11]; 0.39 µg/mL (≈ 0.429 µM) in [12] (setting [26]); 0.39 µg/mL (≈ 0.429 µM) in experiment [13]. Moreover, the results for the MIC in experiment [14] and in [15] were greater than 100 µg/mL and 1.56 µg/mL (≈ 1.72 µM), respectively.
